Patent KR20110136074A, “안정한 에스-베포타스틴 함유 약학조성물 및 이의 제조방법” (이우영, priority 2010, dated 2011)

Experiments:
[1] = 40℃, 75% relative humidity; cited from earlier work
[2] = Optical purity (chiral HPLC) after storage for 4 weeks at 60℃, 75% relative humidity, exposed or sealed; format: physicochemical
[3] = by moisture in additives when formulated with usual excipients and binders; cited from earlier work

| optical purity after 4 weeks, exposed state ([2]; exposed) | optical purity after 4 weeks ([2]; exposed or sealed) | optical purity after 4 weeks, sealed state ([2]; sealed) | SMILES | formation of (R)-isomer and degradation products [1] | racemization to the (R)-isomer [3] |
| --- | --- | --- | --- | --- | --- |
| – | – | – | O=C(O)CCCN1CCC(O[C@@H](c2ccc(Cl)cc2)c2ccccn2)CC1.O=S(=O)(O)c1ccccc1 [(S)-베포타스틴 벤젠술폰산염] | (R)-배열의 이성체 및 분해물이 생성된다 | – |
| 95.56% | 95.5~97.4% | 97.32% | O=C(O)CCCN1CCC(O[C@@H](c2ccc(Cl)cc2)c2ccccn2)CC1 [유상의 (S)-베포타스틴] | – | (R)-배열의 이성체로 라세미화가 일어나 |
